For 23 compounds, IC50 and GI50 results are on record in US20250179059A1 (The Regents of the University of California, priority 2021, published 2025).

Assay [1] concerns the target T1, human BRD4 bromodomain II (Homo sapiens, UniProt O60885).
T1 construct: human BRD4 bromodomain II [based on Genbank NM_058243, residues 349-460]; host or cells: E. coli
Kind of assay: Bromodomain binding assay (AlphaScreen), BRD4 BDII. Conditions: AlphaScreen assay, Table C2; read-out: BRD4 BDII IC50. The method in brief: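 First, His6-tagged BRD4 bromodomain (BDI residues 44-170 or BDII residues 349-460) is incubated with compound for 30 min at room temperature. Next the biotinylated H4 peptide is added for 30 min, then donor and acceptor beads, with 60 min in the dark before AlphaScreen reading and IC50 fitting.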
(In general: Bead proximity is the source of the signal in Alpha formats.)

The subject of assay [2] is human SKM-1 acute myeloid leukemia cells. Kind of assay: SKM-1 antiproliferation cell-based assay (ATPlite). Conditions: Homo sapiens, SKM-1, 96 h, SKM-1 antiproliferation assay, 4 days, Table C2. The method in brief: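 Log-phase cells in RPMI 1640/15% FBS were seeded at 34722 cells/mL and exposed for 4 days to nine-concentration DMSO serial dilutions in triplicate. Viability was read as ATP luminescence (ATPlite 1step), and IC50 values came from variable-slope non-linear regression.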
(ATP-based viability assays read luminescence as a measure of living cells.)

Broadly, the IC50 is the point on the concentration scale where inhibition reaches its midpoint. One may read the GI50 as the concentration giving 50% growth inhibition. Lower therefore signals greater sensitivity of the cells. On to `CN1CCN(c2ccc(-c3cc(F)cc(-c4ccnc(N5CCNc6ccccc65)c4)c3O)cc2Cl)C1=O` [Example 483, 1-(3-chloro-3′-(2-(3,4-dihydroquinoxalin-1(2H)-yl)pyridin-4-yl)-5′-fluoro-2′-hydroxy-[1,1′-biphenyl]-4-yl)-3-methylimidazolidin-2-one], for which the IC50 in assay [1] was over 100 nM. In addition, the GI50 in assay [2] was at least 3000 nM.

In the case of `Cn1ccn(-c2ccc(-c3cc(F)cc(-c4cncc(N5CC[C@H](N)C5)c4)c3O)cc2Cl)c1=O` [Example 484, (S)-1-(3′-(5-(3-aminopyrrolidin-1-yl)pyridin-3-yl)-3-chloro-5′-fluoro-2′-hydroxy-[1,1′-biphenyl]-4-yl)-3-methyl-1H-imidazol-2(3H)-one], the IC50 in assay [1] was in the range of 1 to 10 nM. Also, the GI50 in assay [2] lay within 0.3 to 30 nM.

With `Cn1ccn(-c2ccc(-c3cc(F)cc(-c4ccc(=O)n(C5CCNCC5)c4)c3O)cc2Cl)c1=O` [Example 486, 5-(3′-chloro-5-fluoro-2-hydroxy-4′-(3-methyl-2-oxo-2,3-dihydro-1H-imidazol-1-yl)-[1,1′-biphenyl]-3-yl)-1-(piperidin-4-yl)pyridin-2(1H)-one], in assay [1], the 50% inhibitory concentration (IC50) fell in the range of 1 to 10 nM. The compound also registered a GI50 in assay [2] of 30 to 300 nM.

`Cn1ccn(-c2ccc(-c3cc(F)cc(-c4ccnc(N5CC[C@@H](O)[C@H](N)C5)c4)c3O)cc2Cl)c1=O` [Example 487, 1-(3′-(2-((3R,4R)-3-amino-4-hydroxypiperidin-1-yl)pyridin-4-yl)-3-chloro-5′-fluoro-2′-hydroxy-[1,1′-biphenyl]-4-yl)-3-methyl-1H-imidazol-2(3H)-one]: the IC50 in assay [1] was in the range of 1 to 10 nM. The GI50 in assay [2] lay in the range of 30 to 300 nM.

Consider `CN1CC2(C1)CN(c1cncc(-c3cc(F)cc(-c4ccc(-n5ccn(C)c5=O)c(Cl)c4)c3O)c1)C2` [Example 488, 1-(3-chloro-5′-fluoro-2′-hydroxy-3′-(5-(6-methyl-2,6-diazaspiro[3.3]heptan-2-yl)pyridin-3-yl)-[1,1′-biphenyl]-4-yl)-3-methyl-1H-imidazol-2(3H)-one], for which the IC50 in assay [1] fell in the range of 1 to 10 nM. In assay [2], this compound yielded a GI50 of 0.3 to 30 nM.

For `CN1CC2(C1)CN(c1cc(-c3cc(F)cc(-c4ccc(-n5ccn(C)c5=O)c(Cl)c4)c3O)ccn1)C2` [Example 489, 1-(3-chloro-5′-fluoro-2′-hydroxy-3′-(2-(6-methyl-2,6-diazaspiro[3.3]heptan-2-yl)pyridin-4-yl)-[1,1′-biphenyl]-4-yl)-3-methyl-1H-imidazol-2(3H)-one], the IC50 in assay [1] lay within 1 to 10 nM. Moreover, the GI50 in assay [2] was 0.3 to 30 nM.

`Cn1ccn(-c2ccc(-c3cc(F)cc(-c4ccnc(N5C[C@@H](N)[C@H](O)C5)c4)c3O)cc2Cl)c1=O` [Example 490, 1-(3′-(2-((3R,4R)-3-amino-4-hydroxypyrrolidin-1-yl)pyridin-4-yl)-3-chloro-5′-fluoro-2′-hydroxy-[1,1′-biphenyl]-4-yl)-3-methyl-1H-imidazol-2(3H)-one]: the IC50 in assay [1] lay in the range of 0.01 to 1 nM. This compound also yielded a GI50 in assay [2] of 0.3 to 30 nM.

Regarding `Cn1ccn(-c2ccc(-c3cc(F)cc(-c4cncc(N5C[C@@H](N)[C@H](O)C5)c4)c3O)cc2Cl)c1=O` [Example 491, 1-(3′-(5-((3R,4R)-3-amino-4-hydroxypyrrolidin-1-yl)pyridin-3-yl)-3-chloro-5′-fluoro-2′-hydroxy-[1,1′-biphenyl]-4-yl)-3-methyl-1H-imidazol-2(3H)-one], in assay [1], the IC50 lay in the range of 0.01 to 1 nM. The compound also gave a 50% growth inhibitory concentration (GI50) in assay [2] of 30 to 300 nM.

As to `[2H]C([2H])([2H])n1ccn(-c2ccc(-c3cc(F)cc(-c4ccnc(N5CC6(CNC6)C5)c4)c3O)cc2Cl)c1=O` [Example 492, 1-(3′-(2-(2,6-diazaspiro[3.3]heptan-2-yl)pyridin-4-yl)-3-chloro-5′-fluoro-2′-hydroxy-[1,1′-biphenyl]-4-yl)-3-deuteromethyl-1H-imidazol-2(3H)-one], the IC50 in assay [1] was in the range of 1 to 10 nM. Besides, in assay [2], the GI50 lay within 30 to 300 nM.

Turning to `C[C@@H]1CN(c2cc(-c3cc(F)cc(-c4ccc(-n5ccn(C)c5=O)c(Cl)c4)c3O)ccn2)CCN1C` [Example 493, (R)-1-(3-chloro-3′-(2-(3,4-dimethylpiperazin-1-yl)pyridin-4-yl)-5′-fluoro-2′-hydroxy-[1,1′-biphenyl]-4-yl)-3-methyl-1H-imidazol-2(3H)-one], the IC50 in assay [1] fell in the range of 0.01 to 1 nM. Besides, in assay [2], the GI50 is 0.3 to 30 nM.

For the compound `CNCc1n[nH]c2ccc(-c3cc(F)cc(-c4ccc(-n5ccn(C)c5=O)c(Cl)c4)c3O)cc12` [Example 494, 1-(3-chloro-5′-fluoro-2′-hydroxy-3′-(3-((methylamino)methyl)-1H-indazol-5-yl)-[1,1′-biphenyl]-4-yl)-3-methyl-1H-imidazol-2(3H)-one], the IC50 in assay [1] fell in the range of 1 to 10 nM. The same compound yielded a 50% growth inhibitory concentration (GI50) in assay [2] of 30 to 300 nM.

For `Cn1ccn(-c2ccc(-c3cc(F)cc(-c4cncc(N5CC[C@@H](O)[C@H](N)C5)c4)c3O)cc2Cl)c1=O` [Example 495, 1-(3′-(5-((3R,4R)-3-amino-4-hydroxypiperidin-1-yl)pyridin-3-yl)-3-chloro-5′-fluoro-2′-hydroxy-[1,1′-biphenyl]-4-yl)-3-methyl-1H-imidazol-2(3H)-one], the IC50 in assay [1] lay within 1 to 10 nM. Moreover, the GI50 in assay [2] was in the range of 30 to 300 nM.

For `Cc1cccn(-c2ccc(-c3cc(F)cc(-c4ccnc(N5CCNCC5)c4)c3O)cc2Cl)c1=O` [Example 496, 1-(3-chloro-5′-fluoro-2′-hydroxy-3′-(2-(piperazin-1-yl)pyridin-4-yl)-[1,1′-biphenyl]-4-yl)-^3-methylpyridin-2(1H)-one], the IC50 in assay [1] is over 100 nM. The compound further registered a GI50 in assay [2] of at least 3000 nM.

Take `Cn1ccn(-c2ccc(-c3cc(F)cc(-c4ccnc(N5CCC[C@H](CN)C5)c4)c3O)cc2Cl)c1=O` [Example 497, (R)-1-(3′-(2-(3-(aminomethyl)piperidin-1-yl)pyridin-4-yl)-3-chloro-5′-fluoro-2′-hydroxy-[1,1′-biphenyl]-4-yl)-3-methyl-1H-imidazol-2(3H)-one]: in assay [1], the IC50 lay in the range of 1 to 10 nM. Further, in assay [2], the GI50 lay within 300 to 3000 nM.

Regarding `Cc1cc(-c2ccnc(N3CC[C@H](N)C3)c2)c(O)c(-c2ccc(-n3ccn(C)c3=O)c(Cl)c2)c1` [Example 498, (S)-1-(3′-(2-(3-aminopyrrolidin-1-yl)pyridin-4-yl)-3-chloro-2′-hydroxy-5′-methyl-[1,1′-biphenyl]-4-yl)-3-methyl-1H-imidazol-2(3H)-one], the IC50 in assay [1] is 0.01 to 1 nM. The same compound registered a GI50 in assay [2] of 0.3 to 30 nM.

In the case of `Cn1cnn(-c2ccc(-c3cc(F)cc(-c4ccnc(N5CCNCC5)c4)c3O)cc2Cl)c1=O` [Example 499, 1-(3-chloro-5′-fluoro-2′-hydroxy-3′-(2-(piperazin-1-yl)pyridin-4-yl)-[1,1′-biphenyl]-4-yl)-^4-methyl-1H-1,2,4-triazol-5(4H)-one], the IC50 in assay [1] is 1 to 10 nM. This compound also yielded a GI50 in assay [2] of 30 to 300 nM.

As to `Cc1cc(-c2ccnc(N3CCN[C@H](C)C3)c2)c(O)c(-c2ccc(-n3ccn(C)c3=O)c(Cl)c2)c1` [Example 500, (R)-1-(3-chloro-2′-hydroxy-5′-methyl-3′-(2-(3-methylpiperazin-1-yl)pyridin-4-yl)-[1,1′-biphenyl]-4-yl)-3-methyl-1H-imidazol-2(3H)-one], the IC50 in assay [1] fell in the range of 1 to 10 nM. In assay [2], the GI50 lay in the range of 0.3 to 30 nM.

As for `CN(C)[C@H]1CCCN(c2cncc(-c3cc(F)cc(-c4ccc(-n5ccn(C)c5=O)c(Cl)c4)c3O)c2)C1` [Example 501, (S)-1-(3-chloro-3′-(5-(3-(dimethylamino)piperidin-1-yl)pyridin-3-yl)-5′-fluoro-2′-hydroxy-[1,1′-biphenyl]-4-yl)-3-methyl-1H-imidazol-2(3H)-one], the IC50 in assay [1] lay within 0.01 to 1 nM. The concentration for 50% growth inhibition (GI50) in assay [2] is 0.3 to 30 nM.

With `O=c1ccccn1-c1ccc(-c2cc(F)cc(-c3ccnc(N4CCNCC4)c3)c2O)cc1Cl` [Example 502, 1-(3-chloro-5′-fluoro-2′-hydroxy-3′-(2-(piperazin-1-yl)pyridin-4-yl)-[1,1′-biphenyl]-4-yl)pyridin-2(1H)-one], the IC50 in assay [1] was over 100 nM. In assay [2], this compound gave a GI50 of at least 3000 nM.

As to `CC(=O)Nc1cc(-c2cc(F)cc(-c3ccc(-n4ccn(C)c4=O)c(Cl)c3)c2O)cc(N2CC[C@H](N)C2)n1` [Example 503, (S)-N-(6-(3-aminopyrrolidin-1-yl)-4-(3′-chloro-5-fluoro-2-hydroxy-4′-(3-methyl-2-oxo-2,3-dihydro-1H-imidazol-1-yl)-[1,1′-biphenyl]-3-yl)pyridin-2-yl)acetamide], in assay [1], the IC50 lay within 1 to 10 nM. The compound also yielded a GI50 in assay [2] of 0.3 to 30 nM.

`Cn1ccn(-c2ccc(-c3cc(F)cc(-c4cc(N5CCNCC5)c5nc[nH]c5c4)c3O)cc2Cl)c1=O` [Example 504, 1-(3-chloro-5′-fluoro-2′-hydroxy-3′-(4-(piperazin-1-yl)-1H-benzo[d]imidazol-6-yl)-[1,1′-biphenyl]-4-yl)-3-methyl-1H-imidazol-2(3H)-one]: in assay [1], the IC50 fell in the range of 1 to 10 nM. The same compound displayed a GI50 in assay [2] of 0.3 to 30 nM.

For the compound `O=c1occn1-c1ccc(-c2cc(F)cc(-c3ccnc(N4CCNCC4)c3)c2O)cc1Cl` [Example 505, 3-(3-chloro-5′-fluoro-2′-hydroxy-3′-(2-(piperazin-1-yl)pyridin-4-yl)-[1,1′-biphenyl]-4-yl)oxazol-2(3H)-one], in assay [1], the IC50 was in the range of 1 to 10 nM. For the same compound, in assay [2], the GI50 fell in the range of 30 to 300 nM.

Regarding `CO[C@H]1COC(=O)N1c1ccc(-c2cc(F)cc(-c3ccnc(N4CCNCC4)c3)c2O)cc1Cl` [Example 506, (S)-3-(3-chloro-5′-fluoro-2′-hydroxy-3′-(2-(piperazin-1-yl)pyridin-4-yl)-[1,1′-biphenyl]-4-yl)-4-methoxyoxazolidin-2-one], in assay [1], the IC50 fell in the range of 10 to 100 nM. In addition, the GI50 in assay [2] fell in the range of 300 to 3000 nM.
